Data set [1] is described as follows: Metabolic stability, human liver microsomes. The class given is in vitro ADME. As to conditions: in the presence of NAD+, NADPH, or in the absence of cofactors. The method, then:
NDD-713.HCl and -825.HCl were incubated (0.02, 0.1, or 0.5 μM at 37°C, 120 min) with human (XenoTech, Kansas City, KS, USA) or rat liver microsomes (BD Biosciences, Brea, CA, USA) at 0.4 mg/ml protein concentration. Metabolic reaction was initiated by addition of NADPH-regenerating system or NADPH-regenerating system with uridine diphosphate glucuronic acid. Samples were quenched at time points by acetonitrile addition. Control samples, which contained neither NADPH, nor uridine diphosphate glucuronic acid, were monitored for degradation. Compound concentrations were determined by ultraperformance LC-MS (UPLC-MS) relative to calibration standards that were prepared in quenched liver microsomes and fitted to exponential decay functions to determine first-order rate constants (k) for substrate depletion. These were used to calculate in vitro intrinsic clearance (CLint) values: CLint = k/microsomal protein content (0.4 mg protein/ml). Metabolic stability assays that used rat liver cytosol (BD Biosciences), human cryopreserved hepatocytes, or rat hepatocytes were carried out similarly. Average viable cell concentrations were determined by Trypan Blue exclusion methods (in the absence of test compounds). Studies were carried out by CDCO.

Another data set has as its target T1, human β1-AR (Homo sapiens, UniProt P08588).
T1 construct: expressed in transfected cells
Description: Duration of ligand binding (washout, 3H-CGP12177 whole-cell binding in CHO-β1 cells). As to conditions: greater shift = shorter duration of binding; mean ± SEM. The protocol:
A method that involved ligand washout was used as described ([44]). Cells were incubated with either competing ligand and ^3H-CGP12177 for 2 h (control plate), or competing ligand alone for 2 h (duration plate). After 2 h, the control plate was processed while the duration plate was washed, and ^3H-CGP12177 alone was added to wells and incubated for a second 2 h before processing. […] Relative measures of ligand duration of binding are indicated by the degree of rightward shift of displacement curves ([44]).

The next data set concerns CYP3A4/5. Description: P450 inhibition in human liver microsomes. The data set is classed as in vitro ADME. As to conditions: 0.25–20 μM, hydrochloride salts used. The method, then: (§1) Concentrations of NDD-713.HCl and -825.HCl (0.25–20 μM) were incubated in triplicate (37°C for 4–40 min) with substrates specific for individual P450 isoforms (see Supplemental Data for full details) in human liver microsomes (batch 34689 for CYP1A2 and CYP3A4; batch 0910251 for CYP2C9, CYP2C19, and CYP2D6) at protein concentrations of 0.4 mg/ml (CYP1A2, CYP2C9, CYP2D6 and CYP3A4/5) or 1.0 mg/ml (CYP2C19) and a total organic solvent concentration <1%. Reaction was initiated by addition of NADPH-regenerating system and samples were quenched by addition of ice-cold acetonitrile, which contained 0.15 μg/ml diazepam as an internal standard, before determination of the concentration of specific metabolites by LC-MS. Compound IC50 values (and positive control) for each P450 isoform was assessed according to %reduction in formation of the specific metabolite (maximal metabolite formation occurring in the absence of inhibitor). […] Control samples were included to confirm that the LC-MS assay was not affected by test compounds (and potential metabolites). Studies were carried out by CDCO.
A general note: Liver microsomes are a subcellular fraction often used to study metabolism.

The next data set concerns the target T2, CYP1A2 (Homo sapiens, UniProt P05177).
T2 construct: in human liver microsomes (batch 34689 for CYP1A2 and CYP3A4; batch 0910251 for CYP2C9, CYP2C19, and CYP2D6); tissue batch 34689; host or cells: human liver microsomes
Description: P450 inhibition in human liver microsomes. The conditions noted are these: 0.25–20 μM, hydrochloride salts used. The class given is in vitro ADME. The method, then: as §1

The next data set concerns the target T3, CYP2C19 (Homo sapiens, UniProt P33261).
T3 construct: in human liver microsomes; tissue batch 0910251; host or cells: human liver microsomes
Description: P450 inhibition in human liver microsomes. The data set is classed as in vitro ADME. As to conditions: 0.25–20 μM, hydrochloride salts used. The method, then: as §1

In another data set the target is T4, CYP2C9 (Homo sapiens, UniProt P11712).
T4 construct: in human liver microsomes; tissue batch 0910251; host or cells: human liver microsomes
T4 sequence (P11712 whole entry): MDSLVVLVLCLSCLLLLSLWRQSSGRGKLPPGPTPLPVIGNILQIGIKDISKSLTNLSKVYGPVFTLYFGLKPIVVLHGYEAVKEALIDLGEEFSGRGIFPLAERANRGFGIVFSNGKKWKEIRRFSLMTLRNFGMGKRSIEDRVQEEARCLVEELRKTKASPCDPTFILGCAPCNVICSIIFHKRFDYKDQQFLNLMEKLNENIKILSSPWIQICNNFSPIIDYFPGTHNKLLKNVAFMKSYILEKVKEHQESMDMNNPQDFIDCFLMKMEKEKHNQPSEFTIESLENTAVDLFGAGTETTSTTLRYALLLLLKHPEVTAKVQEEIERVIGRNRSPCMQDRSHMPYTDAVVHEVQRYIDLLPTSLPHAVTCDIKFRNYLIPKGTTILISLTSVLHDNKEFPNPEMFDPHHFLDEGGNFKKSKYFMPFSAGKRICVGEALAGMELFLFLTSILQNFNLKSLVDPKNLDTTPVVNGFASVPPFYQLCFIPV
The experiment in a line: P450 inhibition in human liver microsomes. The class given is in vitro ADME. The conditions noted are these: 0.25–20 μM, hydrochloride salts used. The method, then:
as §1

Data set [2] concerns panel of 80 receptors and ion channels. Description: Cerep in vitro receptor selectivity profiling. The data set is classed as binding. As to conditions: CGP20712A and LK204-545 at 10 μM, NDD-713 at 4.8 μM, NDD-825 at 2.4 μM. The protocol:
Ki (inhibition constant) was calculated by using the Cheng-Prusoff equation from the mean of duplicate determinations in cell-based receptor radioligand-binding assays. Cerep in vitro pharmacology profiling service was used (see the Supplemental Data for a list of the assays used).

Another data set deals with HepG2 cells. Description: HepG2 cytotoxicity (CellTiter-Glo). The data set is classed as cell-based, human. As to conditions: 24 h, even at the limits of aqueous solubility. The method, then:
Human hepatocyte carcinoma cells (HepG2; European Collection of Cell Cultures, Salisbury, United Kingdom) were grown in accordance with their guidelines by using DMEM. Cells at a density of 30,000 cells/well in 96-well plates were incubated overnight (37°C, 5% CO2 atmosphere). Medium was then removed and replaced with DMEM that contained control or compounds (1, 10, and 100 μM; n = 2 per concentration) for 24 h before addition of 100 μl/well of CellTiter-Glo Reagent (Promega, Madison, WI, USA) for ATP measurement and shaken to induce cell lysis. Luminescence was quantified on an AnalystAD plate-reader (Molecular Devices, Sunnyvale, CA, USA). Thioridizine (known HepG2 cytotoxicity) was used as positive control. Study was carried out by BioFocus DPI (Saffron Walden, United Kingdom).
In general terms: Cellular ATP, detected with luciferase, serves as a proxy for viable cell number.

The test system of data set [3] is Salmonella typhimurium strains TA98, TA100, TA1535, and TA1537. The conditions noted are these: concentrations of ≤10 μM, with or without rat liver S9. The method, then:
Ames fluctuation assays were performed by using Salmonella typhimurium strains TA98, TA100, TA1535, and TA1537 to detect frame-shifts and base substitutions that led to missense mutations in liquid culture in 384-well plates. Bacterial plates were incubated with serially diluted NDD-713 and -825 solutions for 96 h, and bacterial growth was measured spectrophotometrically by using a pH color-change indicator in response to bacterial growth acidification. Assays were conducted with or without metabolic activation via addition of rat liver S9 fraction. Bacteriocidal or bacteriostatic effects were assessed by using a bacterial cytotoxicity assay that was conducted in parallel with Ames fluctuation assays. Reference compounds were 2-aminoanthracene, 9-aminoacridine, quercetin, streptozotocin (genotoxicity), and mitomycin C (bacterial cytotoxicity). Study was carried out by Cerep (Celle L’Evescault, France).

The target of a further data set is human albumin (Homo sapiens, UniProt P02768). The experiment in a line: Plasma protein binding estimated from retention on human albumin columns. The class given is in vitro ADME. The conditions noted are these: human albumin chromatography column, chromatographic estimate, read-out: Plasma protein binding PPB (converted).
Chain of human albumin (P02768 25-609): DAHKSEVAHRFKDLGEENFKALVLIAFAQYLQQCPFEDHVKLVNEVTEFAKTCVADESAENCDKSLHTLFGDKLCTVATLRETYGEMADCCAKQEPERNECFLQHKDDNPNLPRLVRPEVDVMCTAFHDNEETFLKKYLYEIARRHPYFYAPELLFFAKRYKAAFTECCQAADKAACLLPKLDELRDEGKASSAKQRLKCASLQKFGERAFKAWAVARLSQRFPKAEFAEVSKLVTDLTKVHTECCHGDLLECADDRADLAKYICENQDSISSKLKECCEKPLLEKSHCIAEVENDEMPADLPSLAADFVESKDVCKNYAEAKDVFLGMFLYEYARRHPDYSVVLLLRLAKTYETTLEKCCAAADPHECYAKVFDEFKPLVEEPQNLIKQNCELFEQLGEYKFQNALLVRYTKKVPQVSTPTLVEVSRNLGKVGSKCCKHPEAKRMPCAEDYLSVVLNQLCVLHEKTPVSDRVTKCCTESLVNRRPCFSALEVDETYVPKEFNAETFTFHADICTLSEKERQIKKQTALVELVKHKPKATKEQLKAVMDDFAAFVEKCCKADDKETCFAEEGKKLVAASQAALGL

The microsomal CLint is a measure of how fast metabolising enzymes remove a compound, apart from limits set by blood flow. One may read the IC50 as the concentration that inhibits the measured activity by half.

T1 sequence (P08588 whole entry): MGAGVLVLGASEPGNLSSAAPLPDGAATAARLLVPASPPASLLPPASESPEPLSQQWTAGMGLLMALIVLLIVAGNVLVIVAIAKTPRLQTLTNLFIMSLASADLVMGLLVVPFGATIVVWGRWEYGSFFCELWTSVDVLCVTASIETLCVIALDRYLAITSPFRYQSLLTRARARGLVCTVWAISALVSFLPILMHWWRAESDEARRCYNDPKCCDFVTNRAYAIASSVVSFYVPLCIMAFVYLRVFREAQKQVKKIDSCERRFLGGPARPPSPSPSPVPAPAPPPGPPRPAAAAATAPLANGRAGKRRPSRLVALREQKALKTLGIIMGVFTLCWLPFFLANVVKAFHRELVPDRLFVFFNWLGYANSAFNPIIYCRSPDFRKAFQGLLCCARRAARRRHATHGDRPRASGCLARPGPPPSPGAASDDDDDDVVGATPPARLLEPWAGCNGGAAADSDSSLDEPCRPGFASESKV
T3 sequence (P33261 whole entry): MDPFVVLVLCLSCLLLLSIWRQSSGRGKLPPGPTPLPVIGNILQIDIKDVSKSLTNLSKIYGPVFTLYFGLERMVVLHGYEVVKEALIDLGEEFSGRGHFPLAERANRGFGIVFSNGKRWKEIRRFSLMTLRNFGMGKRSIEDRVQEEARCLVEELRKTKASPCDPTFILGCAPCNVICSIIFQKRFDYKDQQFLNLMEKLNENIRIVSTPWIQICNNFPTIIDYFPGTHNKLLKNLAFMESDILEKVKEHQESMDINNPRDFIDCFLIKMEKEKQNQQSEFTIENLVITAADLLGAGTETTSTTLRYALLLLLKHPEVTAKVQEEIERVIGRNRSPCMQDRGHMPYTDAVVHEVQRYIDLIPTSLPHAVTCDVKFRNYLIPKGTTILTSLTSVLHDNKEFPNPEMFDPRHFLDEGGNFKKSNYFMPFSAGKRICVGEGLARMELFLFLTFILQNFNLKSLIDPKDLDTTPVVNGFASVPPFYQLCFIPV
T2 sequence (P05177 whole entry): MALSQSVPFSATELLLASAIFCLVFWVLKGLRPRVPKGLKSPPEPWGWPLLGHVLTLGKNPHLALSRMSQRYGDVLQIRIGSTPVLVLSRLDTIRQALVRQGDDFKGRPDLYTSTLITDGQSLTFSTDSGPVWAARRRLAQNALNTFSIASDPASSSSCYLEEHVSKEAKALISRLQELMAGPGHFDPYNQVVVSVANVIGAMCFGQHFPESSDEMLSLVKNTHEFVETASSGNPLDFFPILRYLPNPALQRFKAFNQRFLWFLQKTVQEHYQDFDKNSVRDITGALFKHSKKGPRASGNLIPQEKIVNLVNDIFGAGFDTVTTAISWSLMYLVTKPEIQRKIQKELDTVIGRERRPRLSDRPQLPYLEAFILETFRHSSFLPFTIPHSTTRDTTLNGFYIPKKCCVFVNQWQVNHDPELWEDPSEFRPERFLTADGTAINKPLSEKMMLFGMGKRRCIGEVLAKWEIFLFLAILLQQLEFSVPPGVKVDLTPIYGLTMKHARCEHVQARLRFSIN

Regarding `NC(=O)c1ccc(OCCNC[C@H](O)COc2ccc3c(c2)OC[C@@H](COCC2CC2)O3)cc1` [NDD-713], the microsomal CLint in [1] is less than 0.16 µL/min/mg. Also, the “Log shift (rightward shift of washout curve vs control)” value at human β1-AR is on record as 1.75 ± 0.08. The IC50 with CYP3A4/5, on CYP1A2, on CYP2C19 and at CYP2C9 was more than 20 µM throughout. Further, the “Off-target binding in receptor and ion channel panel” value in data set [2] was “poor affinity for most other GPCRs and ion channels”. In the data set on HepG2 cells, the “Cytotoxic effects in HepG2 cell viability assay” value was “no cytotoxic effects”. Besides, in data set [3], the “Genotoxicity in Ames tests” value is “Neither compound displayed genotoxicity”. Moreover, at human albumin, the fraction unbound was 0.365.

Take `O=C1NCc2cc(OCCNC[C@H](O)COc3ccc4c(c3)OC[C@@H](COCC3CC3)O4)ccc21` [NDD-825]: the microsomal CLint in data set [1] is less than 0.16 µL/min/mg. Also, at human β1-AR, the “Log shift (rightward shift of washout curve vs control)” value came out at 1.62 ± 0.11. Also, the IC50 in the data set on CYP3A4/5, at CYP1A2, at CYP2C19 and on CYP2C9 was more than 20 µM each time. The “Off-target binding in receptor and ion channel panel” value in [2] was “poor affinity for most other GPCRs and ion channels”. The “Cytotoxic effects in HepG2 cell viability assay” value with HepG2 cells is “no cytotoxic effects”. The “Genotoxicity in Ames tests” value in [3] is “Neither compound displayed genotoxicity”. Further, the fraction unbound at human albumin is 0.265.

(Values after PMC5471521, “Novel selective β1-adrenoceptor antagonists for concomitant cardiovascular and respiratory disease” (The FASEB Journal, 2017).)
